Laboratory results published in patent US20200179245A1, “HIGH EFFICIENCY SUNSCREEN COMPOSITION” (Deckner Consulting Services, LLC, priority 2015, published 2020).
Read-outs that look alike come from different tables or passages of the source.

What was measured:
[1] = human skin, cited from earlier work
[2] = In vitro open chamber Franz diffusion cell penetration test; type: in vitro ADME; conditions: Strat-M membrane, 37° C.
Experimental: The Test sample was Barsoleil OMC-60 with a purity of 61.95%. The control sample was Octyl Methoxycinnamate with a purity of 100%. The samples were applied to a Strat-M membrane for testing using 5 skin preparations. A 6-cell semiautomatic Franz cell setup was used for all diffusion experiments. (Franz cell Diffusion is a standard in vitro method used for penetration). Circulating water baths were set to 37° C.±0.5° C. Strat-M synthetic membrane was used in place of cadaver skin. The Strat-M® membrane was placed between the donor and receptor compartments of the Franz cells. The available open area between donor and receptor compartments measured 0.635 cm2. The compartments were clamped together, ensuring that the shiny side of the membrane was facing the donor compartment. 1 mL of the test and control samples were used and placed in the donor chamber. The receptor compartment was filled with 0.9% saline:methanol (50:50) buffer. When the receptor solution reached 37° C., the sample was added to the donor compartment. An aliquot of each sample was removed from the receptor compartment at times T=0, 2, 4, 6 and 8 hours.
The dose of the receptor phase was analyzed by HPLC, and the amount of release per unit area (μg/cm2) was plotted against the square of time and the slope was the transdermal release rate. (See FIG. 3, control sample 20, test sample 30).

Cumulative C ([2]; penetration time 0 hrs) [μg/cm^2]	Cumulative C ([2]; penetration time 2 hrs) [μg/cm^2]	Cumulative C ([2]; penetration time 4 hrs) [μg/cm^2]	Cumulative C ([2]; penetration time 6 hrs) [μg/cm^2]	Cumulative C ([2]; penetration time 8 hrs) [μg/cm^2]	Compound	in vitro skin penetration rate / skin accumulation ([1]; oil in water emulsion) [μg/cm^2]	in vitro skin penetration rate / skin accumulation ([1]; water in oil emulsion) [μg/cm^2]
–	–	–	–	–	CCCCC(CC)COC(=O)/C=C/c1ccc(OC)cc1 (stereo not shown) [OMC-free]	127.8	172.1±12.9
0	16.7	55.2	96.5	144.9	CCCCC(CC)COC(=O)C=Cc1ccc(OC)cc1 (stereo not shown) [OMC, Octyl Methoxycinnamate]	–	–
